The text below walks through data of US20260183303A1, “PDK1 REGULATORY COMPOUND AND COMPOSITION CONTAINING THE SAME” (PROVIBIO CO., LTD., priority 2024, published 2026).

Test [1] has as its system human lung fibroblasts MRC-5 cell lines. Put plainly: Collagen I Western blot in TGF-β treated MRC-5 cells. Type of test: cell-based. Conditions: MRC-5, TGF-β (5 ng/ml), G088 0.5 μM and 1 M (so in the source), 24 hours. How it is done:
To confirm that the compound of the present invention directly acts on fibrosis-related mechanisms, in vitro experiments were performed using human lung fibroblasts MRC-5 cell lines (Korea Cell Bank).
First, MRC-5 cells were seeded at 5×10^3 cells per well in a 6-well plate and stabilized for 24 hours.
Subsequently, experimental groups were established, including a control group, a group treated with TGF-β (5 ng/ml) alone, and groups treated with TGF-β and the compound G088 from the present invention at concentrations of 0.5 μM and […], respectively.
After treating each group with the drugs for 24 hours, the cell medium was removed, and the cells were washed twice with cold PBS. Then, RIPA lysis buffer containing phosphatase inhibitor and protease inhibitor was added to each group to extract proteins.
The extracted proteins were incubated at 4° C. for 30 minutes, then centrifuged at 13,000 rpm for 15 minutes, and the supernatant was collected. The total protein concentration was measured using the BCA protein quantification method.
Subsequently, the proteins were separated by SDS-PAGE, transferred to a PVDF membrane, and Western blot analysis was performed.
The expression levels of Collagen I, a marker related to pulmonary fibrosis, were confirmed, with GAPDH used as an internal control.
On the technique in general: In western blotting, separated proteins are transferred to a membrane and probed.

In test [2] the target is T1, PDK1 (phosphoinositide-dependent kinase 1) phosphorylation (Homo sapiens, UniProt O15530).
T1 construct: endogenous in cells; host or cells: SU-DHL-8 (ATCC CRL-2961)
T1 sequence (O15530 1-556): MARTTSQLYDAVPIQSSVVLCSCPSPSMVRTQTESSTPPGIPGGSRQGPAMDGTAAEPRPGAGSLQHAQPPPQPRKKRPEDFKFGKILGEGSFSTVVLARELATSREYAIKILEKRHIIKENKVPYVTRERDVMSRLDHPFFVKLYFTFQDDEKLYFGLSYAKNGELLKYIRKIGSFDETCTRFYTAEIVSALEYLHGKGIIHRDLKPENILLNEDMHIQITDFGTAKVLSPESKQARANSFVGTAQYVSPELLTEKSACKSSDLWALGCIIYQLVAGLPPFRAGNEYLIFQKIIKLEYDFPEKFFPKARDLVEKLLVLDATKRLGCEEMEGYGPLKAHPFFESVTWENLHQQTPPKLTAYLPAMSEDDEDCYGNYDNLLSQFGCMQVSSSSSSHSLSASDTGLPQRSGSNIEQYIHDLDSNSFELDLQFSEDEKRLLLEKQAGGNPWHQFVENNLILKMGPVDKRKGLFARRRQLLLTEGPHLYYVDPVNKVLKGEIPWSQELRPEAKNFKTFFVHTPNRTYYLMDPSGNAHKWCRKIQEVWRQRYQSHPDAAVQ
As to the kind of experiment: PDK1 phosphorylation (pPDK1-PE) by flow cytometry in SU-DHL-8 cells. Type of test: cell-based. The following applies: 24 hours, compared to the control group. How it is done:
After stabilizing the cells, the compound of the present invention was added, and the cells were cultured for 24 hours.
After drug treatment, the cells were harvested, and the Fc receptor blocking process was performed. The cells were then fixed and permeabilized using the Intracellular Staining Kit (Cat. No. BD554715) from BD Biosciences. Subsequently, the intracellular pPDK1 was stained using the pPDK1-PE fluorescently labeled antibody (BD Biosciences).
Referring to the figure, the vertical axis represents the phosphorylation level of PDK1 (phospho-PDK1 expression level), and the horizontal axis denotes the concentration-dependent treatment conditions of each compound.

The subject of test [3] is bleomycin-induced pulmonary fibrosis mice. Put plainly: Pulmonary fibrosis model induced by bleomycin intratracheal administration. It is filed as in vivo, Balb/c mice. The following applies: BLM mice, vs BLM-treated group. An excerpt:
To evaluate the therapeutic efficacy of the compound according to the present invention against pulmonary fibrosis, an animal model of pulmonary fibrosis induced by bleomycin intratracheal administration was established.
For this purpose, 8-week-old male Balb/c mice were subjected to general anesthesia using an inhalation anesthetic (2-3% isoflurane in oxygen), followed by disinfection of the neck region, skin incision, and exposure of the trachea.
Bleomycin (Sigma-Aldrich, USA)was directly administered into the trachea at a concentration of 5 mg/kg in a solution of […].
Two days prior to Bleomycin administration, the compound of the present invention or the comparative drug was administered intraperitoneally at the specified concentration and dose, and the administration was continued once daily for a total of 14 days.
The experimental groups included Normal, Bleomycin alone (BLM), and BLM plus the compound of the present invention (BLM+G088, 0.2 mg/kg).
Ten days later, the mice were euthanized humanely using carbon dioxide gas, the trachea was incised, and PBS was injected into the trachea to remove blood from the lungs.
The lung tissue washed with PBS was excised, fixed in 4% paraformaldehyde solution for 24 hours, and then paraffin blocks and tissue sections were prepared. The prepared sections were subjected to pathological analysis using H&E, Masson's trichrome, and Sirius red staining.
Additionally, immunohistochemical (IHC) staining was performed for α-SMA (α-smooth muscle actin), an indicator of lung fibroblast activation.

Test [4] addresses T2, full-length PDK1 (PDK1-FL) (Homo sapiens, UniProt O15530).
T2 construct: full-length (PDK1-FL) protein of human-derived PDK1; made in house; host or cells: Sf9 insect cells, baculovirus
T2 sequence (O15530 1-556): T1 sequence (O15530 1-556)
As to the kind of experiment: Binding affinity by Microscale Thermophoresis (MST), full-length PDK1. The following applies: ratio of Kd values. As to the method: Experimental Example 16: Binding affinity experiment with PDK1 using MST Microscale Thermophoresis (MST) analysis was performed to quantitatively measure the binding affinity between PDK1 protein and substrate peptides (PDKTide) or the company-developed low-molecular-weight compound (GO88).
The target proteins were the full-length (PDK1-FL) protein of human-derived PDK1 and the Protein Kinase Domain (PKD) fragment, which were expressed using a baculovirus expression system in insect cell lines (Sf9).
The purity of the purified proteins was confirmed by SDS-PAGE and Coomassie Brilliant Blue staining.
The purified protein was labeled with a fluorescent label using the Monolith NT™ RED-NHS Protein Fluorescent Labeling Kit (NanoTemper).
Specifically, 20 μM of the protein was dissolved in PBS (pH 7.4) buffer, mixed with the fluorescent reagent, and reacted at room temperature under dark conditions for 30 minutes. The mixture was then buffered with MST analysis buffer (50 mM HEPES, 150 mM NaCl, 1 mM DTT, 0.05% Tween-20, pH 7.5). […]
The reaction samples were injected into an MST-specific capillary (NanoTemper) and analyzed using a Monolith NT.115 device (NanoTemper) under laser intensity conditions. […]
The measured data were analyzed using MO.Affinity Analysis software (NanoTemper), and the dissociation constant (Kd) was calculated from the binding curve.
(MST reads how a fluorescent partner responds to local heating, with and without ligand.)

The subject of test [5] is MRL/lpr mice with hair loss symptoms in the facial region. As to the kind of experiment: Hair loss treatment and hair follicle Ki-67 IHC in MRL/lpr mice. It is filed as in vivo. Conditions: 41-week-old female MRL/lpr mice; GO15F (30 mg/kg), G048 (1 mg/kg), G088 (0.5 mg/kg) intraperitoneally once daily. How it is done:
Additionally, in 41-week-old female MRL/lpr mice, the compounds GO15F (30 mg/kg), G048 (1 mg/kg), and G088 (0.5 mg/kg) were administered intraperitoneally once daily.
To confirm the proliferative activity of hair follicle cells in the skin tissue of these mice, the mice were sacrificed 14 days after administration of the compounds of the present invention, and Ki-67 immunohistochemistry […] was performed.
For this purpose, the excised skin tissue was fixed in formalin, embedded in paraffin blocks, and stained with a Ki-67-specific antibody on tissue sections prepared as slides.

Test [6] concerns MRL/MpJ-Faslpr/J (MRL/lpr) lupus animal model. Put plainly: Systemic lupus erythematosus model, MRL/lpr mice. It is filed as in vivo. An excerpt:
The MRL/MpJ-Faslpr/J (hereinafter referred to as “MRL/lpr”) used in this experiment is one of the representative animal models for systemic lupus erythematosus (SLE), known to produce various autoantibodies, including antinuclear antibodies, due to the lpr (lymphoproliferation) gene.
Generally, female MRL/lpr develop systemic lupus erythematosus around 12 weeks of age, and approximately 50% of the animals die by 30 weeks of age.
In this invention, the period up to 9 weeks of age was considered the pre-disease stage, and the period after 23 weeks of age was considered the post-disease stage, and efficacy verification experiments using this model were conducted.
To obtain experimental animals, female MRL/lpr mice aged 6 weeks were imported from The Jackson Laboratory, and MRL/lpr mice were imported from The Jackson Laboratory and acclimatized for one week in an SPF (Specific Pathogen Free) facility maintained at a temperature of 21-24° C., humidity of 40-60%, and a 12-hour light-dark cycle (lights on at 7:00 AM, lights off at 7:00 PM).
Subsequently, female and male MRL/lpr mice were mated at a ratio of 2:1 in the same facility, and the female offspring were administered the compound G015F of the present invention or vehicle at a dose of 30 mg/kg once daily via intraperitoneal injection or oral administration from the age of 10 weeks until 23 weeks of age.
Urine samples were collected once a week from each individual and used for analytical experiments.
At 23 weeks of age, necropsy was performed on each MRL/lpr mouse, and serum, kidneys, and spleens were isolated and used for analytical experiments.
The protein concentration in urine collected weekly from the control group or experimental group was analyzed using ‘Quick Start™ Bradford 1× Dye Reagent (Bio-Rad, Cat. #5000205).’
In each well of a 96-well plate, 5 μl of urine sample diluted with triple-distilled water and 250 μl of 1× dye reagent were added, reacted, and the absorbance was measured at 595 nm.
The concentration of anti-nuclear antibodies (Anti-dsDNA Ab) was measured using the ‘Mouse Anti-dsDNA IgG ELISA Kit (Alpha Diagnostic International, Cat. #5120)’ on serum isolated at the time of necropsy in the lupus animal model.
Each mouse serum was diluted to a final concentration of 1/5000 with Working Sample Diluent (WSD) and Low NSB Sample Diluent (LNSD), followed by adding 100 μl of the diluted serum to wells coated with anti-dsDNA and incubating at room temperature for 60 minutes.
The wells were then washed four times with 200 μl of washing buffer, followed by the addition of 100 μl of Anti-Mouse IgG-HRP antibody, and the mixture was incubated at room temperature for 30 minutes.
Each well was washed four times with 200 μl of washing buffer, and 100 μl of 3,3′,5,5′-Tetramethylbenzidine (TMB) substrate solution was added to each well.
The degree of color change to blue in the wells containing the standard solution was checked, and after 15 minutes, 100 μl of stop solution was added to terminate the reaction.
After the reaction was complete, the optical density (OD) was measured at 450 nm. […]
After that, each well was washed twice with 400 μl of washing solution, and 100 μl of TMB substrate solution was added to each well.
The degree of color change to blue in the wells containing the standard solution was checked, and after 15 minutes, 100 μl of stop solution was added to stop the reaction.
To investigate the effect of G015F administration on changes in the ratio of immune cells in the spleen of a lupus animal model, the spleens of mice administered each compound were excised, cells were extracted, and the cells were suspended in MACS buffer (autoMACS Washing Solution, Miltenyi Biotec., Cat. #130-092-987).
For flow cytometry analysis, FACS tubes (5 mL round tubes, Falcon, Cat. #352052)were used. […]

Where [7] appears, read: serum at necropsy (23 weeks), ELISA.

On to `Nc1ncccc1C(=O)NCCCCCCCCCCCCN1CCNCC1` [Compound G088], for which, in test [1], the “protein expression of Collagen I” value is reported as “inhibited in a concentration-dependent manner”. For the same compound, the “phospho-PDK1 expression level (inhibition of PDK1 phosphorylation)” value in test [2] is reported as “stronger PDK1 inhibition”. Further, in test [3], the “collagen deposition (Masson's trichrome, Sirius red)” value is reported as “significantly reduced” and the “expression of α-SMA in lung tissue (IHC)” value is recorded as “significantly suppressed”. Further, the “binding affinity of full-length PDK1 compared to the PDK fragment” value in test [4] was “six times stronger”. In test [5], the “hair growth on the facial region” value was “hair growth was confirmed”.
With `Nc1ncccc1C(=O)NCCCCCCCCCCCCN1CCOCC1` [Compound 2, 2-Amino-N-(12-morpholin-4-yl-dodecyl)-nicotinamide], the “phospho-PDK1 expression level (inhibition of PDK1 phosphorylation)” value in test [2] is “stronger PDK1 inhibition”. For the same compound, the “hair growth on the facial region” value in test [5] is given as “hair growth was confirmed”.
As to `Nc1ncccc1C(=O)NCCCCCCCCCCCCF` [Compound G015F], the “phospho-PDK1 expression level (inhibition of PDK1 phosphorylation)” value in test [2] was “inhibitory effect on PDK1 phosphorylation”. In test [3], the “collagen deposition (Masson's trichrome, Sirius red)” value is “significantly reduced” and the “expression of α-SMA in lung tissue (IHC)” value is on record as “significantly suppressed”. For the same compound, the “protein concentration in urine” value in test [6] (30 mg/kg once daily, weekly urine, Bradford) is recorded as “significantly lower”. Besides, in test [6] (H&E, PAS, Masson trichrome), the “renal pathological tissue staining (glomeruli)” value was “glomerular capillary loops were well maintained”. The “B cells, T cells and macrophages in the spleen” value in test [6] (flow cytometry (B220, CD3, CD11b/F4/80)) is “reduced the increased B cells, T cells, and macrophages”. For the same compound, the “IgG deposition in kidney tissue” value in test [6] (immunofluorescence staining) is reported as “significantly lower”. Besides, in test [6] (setting [7]), the “concentration of anti-dsDNA IgG in the blood” value was “significantly lower” and the “total IgG concentration in the blood” value is “significantly lower”.
